The results in this text go back to patent US8183287B2, “Pharmaceutical formulations and compositions of a selective antagonist of either CXCR2 or both CXCR1 and CXCR2 and methods of using the same for treating inflammatory disorders” (Schering Corporation, priority 2006, dated 2012).

Assay [1] has as its system neutrophil recruitment to the lungs. The experiment in a line: neutrophil recruitment to the lungs in response to challenge, oral dosing. The assay is classed as in vivo. To be noted: orally administered. From the text: WO 02/083624 describes this compound (as Examples 360.31 and 405), process of making the same, as well as treatment of chemokine-related diseases and cancer using the same. Likewise, WO 03/080053 describes the treatment of chemokine-related diseases using this compound.

A short description of assay [2]: clinical study in subjects with severe psoriasis. The assay is classed as in vivo, human. To be noted: 28 days. As to the method: This study, illustrated schematically in FIG. 6A, was designed as a prospective, randomized, double-blind, placebo-controlled, parallel-group study in subjects with moderate to severe psoriasis.
Each treatment is administered for 28 days. After twelve patients have completed dosing, a determination is made on the progression of the study as outlined in FIG. 6B.
Clinical Assessment. At Screening, Baseline, and Days 1, 8, 15, 29, 36, and 57 the clinical psoriasis activity (PASI and physician global assessment) is determined for each patient.
Efficacy Analyses: The primary efficacy endpoint is the response defined as a ≧50% decrease from baseline in the PASI at the end of 28 days of treatment as well as PGA. The data for the secondary endpoints detailed below are listed and summarized by treatment group using descriptive statistics. Specifically, • percent reduction on Day 28 relative to baseline of psoriatic plaque cellularity, with subpopulation analysis of neutrophils (CD50, Cathepsin G) and T-lymphocytes (CD3+, CD4+, CD8+) • change from baseline in mRNA expression of Gro-α, IL-8, and CXCR2 in the psoriatic plaque and peripheral blood • change from baseline in plasma chemokine concentrations including Gro-α and IL-8

Assay [3] can be described thus: clinical study in subjects with severe neutrophilic asthma. The assay is classed as in vivo, human. As to conditions: 12 weeks. As to the method:
This study, illustrated schematically in FIG. 5, is a randomized, double-blind, placebo-controlled study in subjects with severe neutrophilic asthma.
Safety is assessed after approximately 30 subjects have completed 2 weeks of treatment in DRF. Variables include the effect on sputum neutrophils, PBNs, adverse events (AEs) and other safety data.
Primary Efficacy Endpoint: The primary efficacy endpoint is the asthma exacerbation status (‘yes’ for presence of an exacerbation, ‘no’ for absence) during the 12-week treatment period.

As to `CC[C@@H](Nc1c(Nc2cccc(C(=O)N(C)C)c2O)c(=O)c1=O)c1ccc(C)o1` [Compound I], the “neutrophil recruitment to the lungs” value in assay [1] (mice), in assay [1] (monkeys) and in assay [1] (rats) was “effectively blocks” throughout. Also, the PASI result in assay [2] is on record as “reduction in PASI”. For the same molecule, in assay [3], the asthma exacerbation result is recorded as “reduction in asthma exacerbation”.
